Data from article PMC2685384, “Binding characteristics of the ovine membrane progesterone receptor alpha and expression of the receptor during the estrous cycle” (Reproductive Biology and Endocrinology : RB&E, 2009).
pIC50, pKd: −log10 of the molar value. Like-named read-outs stand apart in the source and are kept apart here. Values belong to the compound of their own block, whether it stands above or below them.

Key:
[1] = biological target: T1, ovine membrane progesterone receptor alpha (mPRα) (Ovis aries, UniProt A0ACI6Q1G6); assay: 3H-progesterone saturation binding on membranes of stable mPRα-CHO cells (also competition, IC50 =[…])
T1 construct: gene PAQR7; ovine mPRα expressed in CHO cells; digitonin-treated crude membrane fractions
T1 sequence (A0ACI6Q1G6 1-350): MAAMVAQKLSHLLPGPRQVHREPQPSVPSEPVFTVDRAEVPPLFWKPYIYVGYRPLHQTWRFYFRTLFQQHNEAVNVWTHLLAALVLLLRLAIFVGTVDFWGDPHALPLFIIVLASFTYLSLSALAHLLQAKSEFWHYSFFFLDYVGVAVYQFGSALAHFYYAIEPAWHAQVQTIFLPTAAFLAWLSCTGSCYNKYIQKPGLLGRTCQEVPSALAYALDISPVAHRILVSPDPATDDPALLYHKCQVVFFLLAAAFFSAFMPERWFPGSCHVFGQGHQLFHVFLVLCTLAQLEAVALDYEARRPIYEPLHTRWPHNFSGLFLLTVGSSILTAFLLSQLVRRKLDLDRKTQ

[2] = biological target: T1, ovine membrane progesterone receptor alpha (mPRα); assay: radioligand competition against 3H-progesterone on mPRα-CHO membranes; type: binding

SMILES: CC(=O)[C@H]1CC[C@H]2[C@@H]3CCC4=CC(=O)CC[C@]4(C)[C@H]3CC[C@]12C [P4, progesterone]
pKd [1]: 6.91

pIC50 ([2]; read-out: IC50): 6.13
SMILES: CC(=O)[C@@]1(O)CC[C@H]2[C@@H]3CCC4=CC(=O)CC[C@]4(C)[C@H]3CC[C@@]21C [17-OH-P4, 17α-hydroxyprogesterone]

SMILES: C[C@H](O)[C@H]1CC[C@H]2[C@@H]3CCC4=CC(=O)CC[C@]4(C)[C@H]3CC[C@]12C [20-OH-P4, 20α-hydroxyprogesterone]
pIC50 [2]: 6.53
